From EPA's ToxRefDB 2

How the values were obtained:
rat [1] = settings: Subchronic oral toxicity in rodents, fischer, Gavage/Intubation, dose end: 13 week, group: systemic
mouse [2] = settings: Subchronic oral toxicity in rodents, b6c3f1, Gavage/Intubation, dose end: 13 week, group: systemic
dog [3] = settings: Chronic toxicity; beagle; Oral; Feed; dose end: 52 week; group: systemic; systemic / hematology / nucleated red blood cell (nrbc) / nucleated red blood cell (nrbc) + systemic / in life observation / clinical signs…
rat [4] = settings: Multigenerational reproductive toxicity study, sprague dawley, Oral, Feed, dose end: 2 generation
rat [5] = settings: Subchronic oral toxicity in rodents, sprague dawley, Feed, dose end: 90 day, group: systemic
rat [6] = settings: Combined chronic toxicity/carcinogenicity; sprague dawley; Oral; Feed; dose end: 2 year; group: systemic; systemic / hematology / lymphocyte / lymphocyte + systemic / hematology / neutrophils / neutrophils + systemic / in life observation / body …
mouse [7] = settings: Carcinogenicity; cd1; Oral; Feed; dose end: 18 month; group: systemic; systemic / pathology microscopic / adrenal gland / eosinophilic focus + systemic / pathology microscopic / liver / hypertrophy + systemic / …
rat [8] = settings: Multigenerational reproductive toxicity study, sprague dawley, Oral, Feed, dose end: 2 generation; remark: listed apart in the source
dog [9] = settings: Subchronic oral toxicity in nonrodent, beagle, Feed, dose end: 13 week, group: systemic
rabbit = settings: Prenatal developmental toxicity study, new zealand white, Oral, Gavage/Intubation, dose end: 19 GD
rat [10] = settings: Combined chronic toxicity/carcinogenicity, sprague dawley, Oral, Feed, dose end: 2 year, group: systemic
rat [11] = settings: Prenatal developmental toxicity study, sprague dawley, Oral, Gavage/Intubation, dose end: 15 GD
dog [12] = settings: Chronic toxicity, beagle, Oral, Feed, dose end: 53 week, group: systemic
rat [13] = settings: Subchronic oral toxicity in rodents, sprague dawley, Feed, dose end: 3 month, group: systemic
dog [14] = settings: Chronic toxicity, beagle, Oral, Feed, dose end: 1 year, group: systemic
mouse [15] = settings: Subchronic oral toxicity in rodents, cd1, Feed, dose end: 3 month, group: systemic
mouse [16] = settings: Combined chronic toxicity/carcinogenicity, cd1, Oral, Feed, dose end: 24 month, group: systemic
[17] = systemic / clinical chemistry / albumin / albumin + systemic / clinical chemistry / protein / protein + systemic / hematology / mean …
[18] = systemic / in life observation / clinical signs / lacrimation + systemic / hematology / mean corpuscular (cell) volume (mcv) / mean …
[19] = systemic / in life observation / clinical signs / hyperactivity + systemic / in life observation / mortality / mortality + systemic / …
[20] = group: offspring, systemic / in life observation / body weight / offspring (pup) weight + systemic / pathology gross / heart / enlarged + systemic / pathology…
[21] = group: parental, systemic / in life observation / clinical signs / dental fluorosis
[22] = group: parental, systemic / in life observation / clinical signs / dental fluorosis + systemic / in life observation / clinical signs / teeth whitening
[23] = systemic / clinical chemistry / alanine aminotransferase (alt/sgpt) / alanine aminotransferase (alt/sgpt)
[24] = systemic / pathology gross / stomach / discolored + systemic / pathology gross / stomach / foci + systemic / pathology gross / stomach / …
[25] = group: offspring, systemic / in life observation / body weight / offspring (pup) weight gain
[26] = group: offspring, systemic / in life observation / body weight / offspring (pup) weight gain + developmental / offspring survival late / viability index / …
[27] = group: parental, systemic / organ weight / liver / nos + systemic / organ weight / liver / relative to body weight + systemic / in life observation / food …
[28] = group: parental, systemic / organ weight / liver / nos + systemic / organ weight / liver / relative to body weight + systemic / pathology microscopic / liver…
[29] = group: reproductive, reproductive / offspring survival early / birth index / live birth index
[30] = systemic / pathology microscopic / liver / hypertrophy
[31] = systemic / pathology microscopic / liver / hypertrophy + systemic / clinical chemistry / alkaline phosphatase (alp/alk) / alkaline …
[32] = group: developmental, developmental / offspring survival late / viability index / viability index
[33] = group: maternal, reproductive / reproductive performance / resorptions / resorptions + systemic / in life observation / body weight / body weight + systemic…
[34] = systemic / organ weight / testes / nos + systemic / pathology microscopic / testes / atrophy
[35] = systemic / organ weight / testes / nos + systemic / pathology microscopic / testes / atrophy + systemic / in life observation / body weight…
[36] = group: developmental, developmental / developmental malformation / bone / cervical + developmental / developmental malformation / bone / short supernumerary
[37] = group: maternal, systemic / in life observation / clinical signs / fur (altered appearance) + systemic / in life observation / clinical signs / salivation
[38] = group: maternal, systemic / in life observation / clinical signs / fur (altered appearance) + systemic / in life observation / clinical signs / salivation + …
[39] = systemic / pathology microscopic / liver / hypertrophy + systemic / clinical chemistry / alanine aminotransferase (alt/sgpt) / alanine …
[40] = systemic / clinical chemistry / hepatic mixed function oxidase (mfo) assay / hepatic mixed function oxidase (mfo) assay
[41] = systemic / organ weight / liver / relative to body weight
[42] = systemic / pathology microscopic / adrenal gland / hypertrophy + systemic / pathology microscopic / liver / hypertrophy + systemic / …
[43] = systemic / clinical chemistry / hepatic mixed function oxidase (mfo) assay / hepatic mixed function oxidase (mfo) assay + systemic / …

Structure (SMILES): C[N+](C)(C)Cc1ccccc1.[Cl-] [Benzyltrimethylammonium chloride]
- LOAEL (rat [1]; [17]): > 100 mg/kg/day
- NOAEL (rat [1]; [17]): ≥ 100 mg/kg/day
- LEL (rat [1]; [18]): 12.5 mg/kg/day
- NEL (rat [1]; [18]): < 12.5 mg/kg/day
- LEL (mouse [2]; systemic / clinical chemistry / protein / protein): 25 mg/kg/day
- NEL (mouse [2]; systemic / clinical chemistry / protein / protein + systemic / in life observation / mortality / mortality + systemic / organ weight / heart…): 12.5 mg/kg/day
- LOAEL (mouse [2]; [19]): > 100 mg/kg/day
- NOAEL (mouse [2]; [19]): ≥ 100 mg/kg/day

Structure (SMILES): [F][Al-3]([F])([F])([F])([F])[F].[Na+].[Na+].[Na+] [Cryolite]
- LEL (dog [3]): 95 mg/kg/day
- LOAEL (dog [3]): 95 mg/kg/day
- NEL (dog [3]): < 95 mg/kg/day
- NOAEL (dog [3]): < 95 mg/kg/day
- LOAEL (rat [4]; group: offspring, systemic / in life observation / body weight / offspring (pup) weight): 128 mg/kg/day
- LEL (rat [4]; [20]): 128 mg/kg/day
- NEL (rat [4]; [20]): 42 mg/kg/day
- NOAEL (rat [4]; [20]): 42 mg/kg/day
- LOAEL (rat [4]; [21]): 14 mg/kg/day
- NOAEL (rat [4]; [21]): < 14 mg/kg/day
- LEL (rat [4]; [22]): 14 mg/kg/day
- NEL (rat [4]; [22]): < 14 mg/kg/day
- LEL (rat [5]; [23]): 4.5 mg/kg/day
- NEL (rat [5]; [23]): < 4.5 mg/kg/day
- LOAEL (rat [5]; [24]): 399 mg/kg/day
- NOAEL (rat [5]; [24]): 3.8 mg/kg/day

Structure (SMILES): CCCCC(C#N)(Cn1cncn1)c1ccc(Cl)cc1 (stereo not drawn) [Myclobutanil]
- LEL (rat [6]): 125 mg/kg/day
- LOAEL (rat [6]): > 125 mg/kg/day
- NEL (rat [6]): < 125 mg/kg/day
- NOAEL (rat [6]): ≥ 125 mg/kg/day
- LEL (mouse [7]): 394 mg/kg/day
- LOAEL (mouse [7]): 394 mg/kg/day
- NEL (mouse [7]): < 394 mg/kg/day
- NOAEL (mouse [7]): < 394 mg/kg/day
- NEL (rat [8]; [25]): 10 mg/kg/day
- NOAEL (rat [8]; [25]): 10 mg/kg/day
- LEL (rat [8]; [26]): 50 mg/kg/day
- LOAEL (rat [8]; [26]): 50 mg/kg/day
- NEL (rat [8]; [27]): 2.5 mg/kg/day
- NOAEL (rat [8]; [27]): 2.5 mg/kg/day
- LEL (rat [8]; [28]): 10 mg/kg/day
- LOAEL (rat [8]; [28]): 10 mg/kg/day
- LEL (rat [8]; [29]): 10 mg/kg/day
- LOAEL (rat [8]; [29]): 50 mg/kg/day
- NEL (rat [8]; [29]): 2.5 mg/kg/day
- NOAEL (rat [8]; [29]): 10 mg/kg/day
- LOAEL (dog [9]; [30]): 5 mg/kg/day
- NEL (dog [9]; [31]): 0.25 mg/kg/day
- NOAEL (dog [9]; [31]): 0.25 mg/kg/day
- LEL (dog [9]; systemic / pathology microscopic / liver / hypertrophy + systemic / pathology microscopic / kidney / inflammation): 5 mg/kg/day
- LEL (rabbit; [32]): 200 mg/kg/day
- LOAEL (rabbit; [32]): 200 mg/kg/day
- NEL (rabbit; [32]): 60 mg/kg/day
- NOAEL (rabbit; [32]): 60 mg/kg/day
- LEL (rabbit; [33]): 200 mg/kg/day
- LOAEL (rabbit; [33]): 200 mg/kg/day
- NEL (rabbit; [33]): 60 mg/kg/day
- NOAEL (rabbit; [33]): 60 mg/kg/day
- LEL (rat [10]; [34]): 9.84 mg/kg/day
- LOAEL (rat [10]; [34]): 9.84 mg/kg/day
- NEL (rat [10]; [35]): 2.49 mg/kg/day
- NOAEL (rat [10]; [35]): 2.49 mg/kg/day
- LEL (rat [11]; [36]): 313 mg/kg/day
- LOAEL (rat [11]; [36]): 313 mg/kg/day
- NEL (rat [11]; [36]): 93.8 mg/kg/day
- NOAEL (rat [11]; [36]): 93.8 mg/kg/day
- LEL (rat [11]; [37]): 313 mg/kg/day
- LOAEL (rat [11]; [37]): 313 mg/kg/day
- NEL (rat [11]; [38]): 93.8 mg/kg/day
- NOAEL (rat [11]; [38]): 93.8 mg/kg/day
- LOAEL (dog [12]; [30]): 14.3 mg/kg/day
- NEL (dog [12]; [39]): 3.09 mg/kg/day
- NOAEL (dog [12]; [39]): 3.09 mg/kg/day
- LEL (dog [12]; systemic / pathology microscopic / liver / hypertrophy + systemic / hematology / mean corpuscular hemoglobin (mch) / mean corpuscular …): 14.3 mg/kg/day
- LEL (rat [13]; [40]): 15 mg/kg/day
- NEL (rat [13]; [40]): < 15 mg/kg/day
- LOAEL (rat [13]; systemic / organ weight / kidney / nos + systemic / organ weight / liver / nos): 150 mg/kg/day
- NOAEL (rat [13]; systemic / organ weight / kidney / nos + systemic / organ weight / liver / nos + systemic / clinical chemistry / albumin-globulin ratio / …): 50 mg/kg/day
- LEL (dog [14]; [41]): 0.4 mg/kg/day
- NEL (dog [14]; [41]): < 0.4 mg/kg/day
- LOAEL (dog [14]; [30]): 14.3 mg/kg/day
- NOAEL (dog [14]; systemic / pathology microscopic / liver / hypertrophy + systemic / organ weight / liver / relative to body weight + systemic / organ weight…): 3.09 mg/kg/day
- LOAEL (mouse [15]; [42]): 150 mg/kg/day
- NEL (mouse [15]; [42]): 45 mg/kg/day
- NOAEL (mouse [15]; [42]): 45 mg/kg/day
- LEL (mouse [15]; systemic / pathology microscopic / adrenal gland / hypertrophy + systemic / pathology microscopic / liver / necrosis + systemic / pathology …): 150 mg/kg/day
- LEL (mouse [16]; [40]): 16.5 mg/kg/day
- LOAEL (mouse [16]; [40]): 16.5 mg/kg/day
- NEL (mouse [16]; [43]): 3.2 mg/kg/day
- NOAEL (mouse [16]; [43]): 3.2 mg/kg/day
